From US8658791B2, “2-substituted-6-amino-5-alkyl, alkenyl or alkynyl-4-pyrimidinecarboxylic acids and 6-substituted-4-amino-3-alkyl, alkenyl or alkynyl picolinic acids and their use as herbicides” (Dow AgroSciences, LLC, priority 2007, dated 2014)
Where a name gives a salt, the structure may show the parent alone.

Legend:
[1] = tested on: wild poinsettia (Euphorbia heterophylla); assay: General postemergence herbicidal activity, EPHHL; format: in vivo; settings: postemergence spray, visual score after 14 days, 0 = no injury, 100 = complete kill; for pest or weed control at 280 g/ha / pest or weed control at 70 g/ha / pest or weed control at 140 g/ha: Euphorbia heterophylla, post-emergence, 336 h, read-out: Post-emergent Weed Control EPHHL; for pest or weed control at 280 g/ha: 280 g ai/ha; for pest or weed control at 140 g/ha: 140 g ai/ha
Experimental: (§1) Seeds or nutlets of the desired test plant species were planted in Sun Gro MetroMix® 306 planting mixture, which typically has a pH of 6.0 to 6.8 and an organic matter content of about 30 percent, in plastic pots with a surface area of 103 square centimeters. When required to ensure good germination and healthy plants, a fungicide treatment and/or other chemical or physical treatment was applied. The plants were grown for 7-21 days in a greenhouse with an approximate 15 hour photoperiod which was maintained at about 23-29° C. during the day and 22-28° C. during the night. Nutrients and water were added on a regular basis and supplemental lighting was provided with overhead metal halide 1000-Watt lamps as necessary. The plants were employed for testing when they reached the first or second true leaf stage.
(§2) A weighed amount, determined by the highest rate to be tested, of each test compound was placed in a 25 mL glass vial and was dissolved in 4 mL of a 97:3 v/v (volume/volume) mixture of acetone and dimethyl sulfoxide (DMSO) to obtain concentrated stock solutions. […] The concentrated stock solutions obtained were diluted with 20 mL of an aqueous mixture containing acetone, water, isopropyl alcohol, DMSO, Atplus 411F crop oil concentrate, and Triton® X-155 surfactant in a 48.5:39:10:1.5:1.0:0.02 v/v ratio to obtain spray solutions containing the highest application rates. Additional application rates were obtained by serial dilution of 12 mL of the high rate solution into a solution containing 2 mL of 97:3 v/v (volume/volume) mixture of acetone and dimethyl sulfoxide (DMSO) and 10 mL of an aqueous mixture containing acetone, water, isopropyl alcohol, DMSO, Atplus 411F crop oil concentrate, and Triton X-155 surfactant in a 48.5:39:10:1.5:1.0:0.02 v/v ratio to obtain 1/2X, 1/4X, 1/8X and 1/16X rates of the high rate. Compound requirements are based upon a 12 mL application volume at a rate of 187 L/ha. Formulated compounds were applied to the plant material with an overhead Mandel track sprayer equipped with a 8002E nozzles calibrated to deliver 187 L/ha over an application area of 0.503 square meters at a spray height of 18 inches (43 cm) above the average plant canopy height. Control plants were sprayed in the same manner with the solvent blank.
(§3) The treated plants and control plants were placed in a greenhouse as described above and watered by sub-irrigation to prevent wash-off of the test compounds. After 14 days, the condition of the test plants as compared with that of the untreated plants was determined visually and scored on a scale of 0 to 100 percent where 0 corresponds to no injury and 100 corresponds to complete kill.

[2] = tested on: barnyardgrass (Echinochloa crus-galli); assay: General postemergence herbicidal activity, ECHCG; format: in vivo; settings: postemergence spray, visual score after 14 days, 0 = no injury, 100 = complete kill; for pest or weed control at 280 g/ha / pest or weed control at 70 g/ha / pest or weed control at 140 g/ha: Echinochloa crus-galli, post-emergence, 336 h, read-out: Post-emergent Weed Control ECHCG; for pest or weed control at 280 g/ha: 280 g ai/ha; for pest or weed control at 140 g/ha: 140 g ai/ha
Experimental: as §1, §2, §3

[3] = tested on: lambsquarter (Chenopodium album); assay: General postemergence herbicidal activity, CHEAL; format: in vivo; settings: postemergence spray, visual score after 14 days, 0 = no injury, 100 = complete kill; for pest or weed control at 280 g/ha / pest or weed control at 70 g/ha / pest or weed control at 140 g/ha: Chenopodium album, post-emergence, 336 h, read-out: Post-emergent Weed Control CHEAL; for pest or weed control at 280 g/ha: 280 g ai/ha; for pest or weed control at 140 g/ha: 140 g ai/ha
Experimental: as §1, §2, §3

[4] = tested on: velvetleaf (Abutilon theophrasti); assay: General postemergence herbicidal activity, ABUTH; format: in vivo; settings: postemergence spray, visual score after 14 days, 0 = no injury, 100 = complete kill; for pest or weed control at 280 g/ha / pest or weed control at 70 g/ha / pest or weed control at 140 g/ha: Abutilon theophrasti, post-emergence, 336 h, read-out: Post-emergent Weed Control ABUTH; for pest or weed control at 280 g/ha: 280 g ai/ha; for pest or weed control at 140 g/ha: 140 g ai/ha
Experimental: as §1, §2, §3

rice (Oryza sativa) = assay: General postemergence herbicidal activity, ORYSA; format: in vivo; settings: postemergence spray, visual score after 14 days, 0 = no injury, 100 = complete kill; for plant injury at 280 g/ha / plant injury at 70 g/ha / plant injury at 140 g/ha: Oryza sativa, post-emergence, 336 h, read-out: Post-emergent Weed Control ORYSA; for plant injury at 280 g/ha: 280 g ai/ha; for plant injury at 140 g/ha: 140 g ai/ha
Experimental: as §1, §2, §3

## C=Cc1c(N)nc(-c2ccc(Cl)cc2)nc1C(=O)OC [Compound 6, 6-Amino-2-(4-chlorophenyl)-5-vinylpyrimidine-4-carboxylic acid methyl ester]
[1]
  pest or weed control at 280 g/ha: 70%
[2]
  pest or weed control at 280 g/ha: 80%
[3]
  pest or weed control at 280 g/ha: 90%
[4]
  pest or weed control at 280 g/ha: 100%
Rice (Oryza sativa)
  plant injury at 280 g/ha: 0%
other
  melting point: 164 to 167 °C

## C=Cc1c(N)nc(-c2ccc(Cl)c(OC)c2)nc1C(=O)OC [Compound 7, 6-Amino-2-(4-chloro-3-methoxyphenyl)-5-vinylpyrimidine-4-carboxylic acid methyl ester]
[1]
  pest or weed control at 280 g/ha: 70%
[2]
  pest or weed control at 280 g/ha: 0%
[3]
  pest or weed control at 280 g/ha: 95%
[4]
  pest or weed control at 280 g/ha: 60%
Rice (Oryza sativa)
  plant injury at 280 g/ha: 0%
other
  melting point: 144 to 148 °C

## C=Cc1c(N)nc(-c2cc(OC)c(Cl)cc2F)nc1C(=O)OC [Compound 8, 6-Amino-2-(4-chloro-2-fluoro-5-methoxyphenyl)-5-vinylpyrimidine-4-carboxylic acid methyl ester]
[1]
  pest or weed control at 280 g/ha: 50%
[2]
  pest or weed control at 280 g/ha: 100%
[3]
  pest or weed control at 280 g/ha: 100%
[4]
  pest or weed control at 280 g/ha: 100%
Rice (Oryza sativa)
  plant injury at 280 g/ha: 0%
other
  melting point: 161 to 164 °C

## C/C=C\c1c(N)nc(-c2ccc(Cl)c(OC)c2F)nc1C(=O)OC [Compound 23, 6-Amino-2-(4-chloro-2-fluoro-3-methoxyphenyl)-5-((Z)-propenyl)pyrimidine-4-carboxylic acid methyl ester]
[1]; 70 g ai/ha
  pest or weed control at 70 g/ha: 100%
[2]; 70 g ai/ha
  pest or weed control at 70 g/ha: 95%
[3]; 70 g ai/ha
  pest or weed control at 70 g/ha: 95%
[4]; 70 g ai/ha
  pest or weed control at 70 g/ha: 85%
Rice (Oryza sativa); 70 g ai/ha
  plant injury at 70 g/ha: 10%
other
  melting point: 91 to 93 °C

## COc1c(Cl)ccc(-c2nc(N)c(C(C)OC)c(C(=O)O)n2)c1F (stereo not drawn) [Compound 40, 6-Amino-2-(4-chloro-2-fluoro-3-methoxyphenyl)-5-(1-methoxyethyl)pyrimidine-4-carboxylic acid]
[1]
  pest or weed control at 280 g/ha: 100%
[2]
  pest or weed control at 280 g/ha: 90%
[3]
  pest or weed control at 280 g/ha: 100%
[4]
  pest or weed control at 280 g/ha: 85%
Rice (Oryza sativa)
  plant injury at 280 g/ha: 35%
other
  melting point: 165 to 167 °C

## C=Cc1c(N)nc(-c2ccc(Cl)c(OC)c2F)nc1C(=O)O [Compound 41, 6-Amino-2-(4-chloro-2-fluoro-3-methoxyphenyl)-5-vinylpyrimidine-4-carboxylic acid]
[1]; 70 g ai/ha
  pest or weed control at 70 g/ha: 100%
[2]; 70 g ai/ha
  pest or weed control at 70 g/ha: 100%
[3]; 70 g ai/ha
  pest or weed control at 70 g/ha: 100%
[4]; 70 g ai/ha
  pest or weed control at 70 g/ha: 100%
Rice (Oryza sativa); 70 g ai/ha
  plant injury at 70 g/ha: 65%
other
  melting point: 167 to 168 °C

## C=Cc1c(N)nc(-c2ccc(Cl)c(F)c2F)nc1C(=O)O [Compound 44, 6-amino-2-(4-chloro-2,3-difluorophenyl)-5-vinylpyrimidine-4-carboxylic acid]
[1]; 70 g ai/ha
  pest or weed control at 70 g/ha: 100%
[2]; 70 g ai/ha
  pest or weed control at 70 g/ha: 100%
[3]; 70 g ai/ha
  pest or weed control at 70 g/ha: 100%
[4]; 70 g ai/ha
  pest or weed control at 70 g/ha: 100%
Rice (Oryza sativa); 70 g ai/ha
  plant injury at 70 g/ha: 15%
other
  melting point: 170 to 172 °C

## C=Cc1c(N)nc(-c2cc(F)c(Cl)cc2F)nc1C(=O)O [Compound 46, 6-Amino-2-(4-chloro-2,5-difluorophenyl)-5-vinylpyrimidine-4-carboxylic acid]
[1]
  pest or weed control at 140 g/ha: 95%
[2]
  pest or weed control at 140 g/ha: 90%
[3]
  pest or weed control at 140 g/ha: 100%
[4]
  pest or weed control at 140 g/ha: 90%
Rice (Oryza sativa)
  plant injury at 140 g/ha: 40%
other
  melting point: 81 to 83 °C

## C=Cc1c(N)nc(-c2ccc(Cl)c(N(C)C)c2F)nc1C(=O)O [Compound 51, 6-Amino-2-(4-chloro-3-dimethylamino-2-fluorophenyl)-5-vinylpyrimidine-4-carboxylic acid]
[1]
  pest or weed control at 140 g/ha: 90%
[2]
  pest or weed control at 140 g/ha: 95%
[3]
  pest or weed control at 140 g/ha: 100%
[4]
  pest or weed control at 140 g/ha: 100%
Rice (Oryza sativa)
  plant injury at 140 g/ha: 60%

## C=C(F)c1c(N)nc(-c2ccc(Cl)c(OC)c2F)nc1C(=O)O [Compound 52, 6-Amino-2-(4-chloro-2-fluoro-3-methoxyphenyl)-5-(1-fluorovinyl)pyrimidine-4-carboxylic acid]
[1]
  pest or weed control at 140 g/ha: 100%
[2]
  pest or weed control at 140 g/ha: 90%
[3]
  pest or weed control at 140 g/ha: 95%
[4]
  pest or weed control at 140 g/ha: 95%
Rice (Oryza sativa)
  plant injury at 140 g/ha: 65%

## CCc1c(N)nc(-c2ccc(Cl)c(OC)c2F)nc1C(=O)O [Compound 54, 6-Amino-2-(4-chloro-2-fluoro-3-methoxyphenyl)-5-ethylpyrimidine-4-carboxylic acid]
[1]
  pest or weed control at 280 g/ha: 100%
[2]
  pest or weed control at 280 g/ha: 90%
[3]
  pest or weed control at 280 g/ha: 100%
[4]
  pest or weed control at 280 g/ha: 90%
Rice (Oryza sativa)
  plant injury at 280 g/ha: 0%

## C#Cc1c(N)nc(-c2ccc(Cl)c(OC)c2F)nc1C(=O)O [Compound 56, 6-Amino-2-(4-chloro-2-fluoro-3-methoxyphenyl)-5-ethynylpyrimidine-4-carboxylic acid]
[1]
  pest or weed control at 140 g/ha: 90%
[2]
  pest or weed control at 140 g/ha: 75%
[3]
  pest or weed control at 140 g/ha: 95%
[4]
  pest or weed control at 140 g/ha: 80%
Rice (Oryza sativa)
  plant injury at 140 g/ha: 0%

## COc1c(Cl)ccc(-c2cc(N)c(C)c(C(=O)O)n2)c1F [Compound 58, 4-Amino-6-(4-chloro-2-fluoro-3-methoxyphenyl)-3-methylpyridine-2-carboxylic acid]
[1]
  pest or weed control at 280 g/ha: 90%
[2]
  pest or weed control at 280 g/ha: 50%
[3]
  pest or weed control at 280 g/ha: 50%
[4]
  pest or weed control at 280 g/ha: 90%
Rice (Oryza sativa)
  plant injury at 280 g/ha: 0%

## C=Cc1c(N)nc(-c2ccc(Cl)c(OC)c2F)nc1C(=O)O [Compound 63, triethylamine salt of 6-amino-2-(4-chloro-2-fluoro-3-methoxyphenyl)-5-vinylpyrimidine-4-carboxylic acid]
[1]; 70 g ai/ha
  Post-emergent Weed Control EPHHL: 100%
[2]; 70 g ai/ha
  Post-emergent Weed Control ECHCG: 90%
[3]; 70 g ai/ha
  Post-emergent Weed Control CHEAL: 100%
[4]; 70 g ai/ha
  Post-emergent Weed Control ABUTH: 95%
Rice (Oryza sativa); 70 g ai/ha
  Post-emergent Weed Control ORYSA: 75%
